Active and inactive are the calls of the source. The calls are words filed in the database; no cut-off is given here.
Assays:
[1] = target: Protein kinase C eta type (Homo sapiens) (UniProt P24723); assay: Inhibition of recombinant human PRKCH at 2 uM using Ser/Thr 07 as substrate measured after 1 hr by Z'-LYTE assay relative to control
[2] = target: Protein kinase C epsilon type (Homo sapiens) (UniProt Q02156); assay: Inhibition of recombinant human full length GST-tagged PRKCE expressed in insect cells at 2 uM using Ser/Thr 07 as substrate measured after 1 hr by Z'-LYTE assay relative to control; settings: Insect cell
[3] = target: Dual specificity protein kinase CLK1 (Homo sapiens) (UniProt P49759); assay: Inhibition of recombinant human GST-tagged CLK1 (129-484 residues) expressed in E. coli at 2 uM using Ser/Thr 09 as substrate measured after 1 hr by Z'-LYTE assay relative to control
mTORC1 (Homo sapiens) = mTORC1 (Homo sapiens) (UniProt P42345+Q8N122+Q9BVC4); settings: U-87 MG, dose 0.025-2 µmol/L, time 6.0 hrs
PC3MM2 = assay: Antitumor activity against human PC3MM2 cells assessed as block the hypoxia-induced VEGF production in low oxygen at 0.3 micromol/L incubated for 24 hrs by ELISA analysis; format: functional, cell-based; settings: dose 0.3 µmol/L
MG-63 = assay: Antiproliferative activity against human MG-63 cells assessed as cell growth inhibition incubated for 24 hrs by MTS assay; format: functional, cell-based; settings: MG-63, 24 h
[4] = target: G protein-coupled receptor kinase 6 (Homo sapiens) (UniProt P43250); assay: Inhibition of recombinant human full-length GST-tagged GRK6 expressed in insect cells at 2 uM using Ser/Thr 16 as substrate measured after 1 hr by Z'-LYTE assay relative to control; settings: Insect cell
Chain of G protein-coupled receptor kinase 6 (Homo sapiens) (P43250 whole entry, looked up): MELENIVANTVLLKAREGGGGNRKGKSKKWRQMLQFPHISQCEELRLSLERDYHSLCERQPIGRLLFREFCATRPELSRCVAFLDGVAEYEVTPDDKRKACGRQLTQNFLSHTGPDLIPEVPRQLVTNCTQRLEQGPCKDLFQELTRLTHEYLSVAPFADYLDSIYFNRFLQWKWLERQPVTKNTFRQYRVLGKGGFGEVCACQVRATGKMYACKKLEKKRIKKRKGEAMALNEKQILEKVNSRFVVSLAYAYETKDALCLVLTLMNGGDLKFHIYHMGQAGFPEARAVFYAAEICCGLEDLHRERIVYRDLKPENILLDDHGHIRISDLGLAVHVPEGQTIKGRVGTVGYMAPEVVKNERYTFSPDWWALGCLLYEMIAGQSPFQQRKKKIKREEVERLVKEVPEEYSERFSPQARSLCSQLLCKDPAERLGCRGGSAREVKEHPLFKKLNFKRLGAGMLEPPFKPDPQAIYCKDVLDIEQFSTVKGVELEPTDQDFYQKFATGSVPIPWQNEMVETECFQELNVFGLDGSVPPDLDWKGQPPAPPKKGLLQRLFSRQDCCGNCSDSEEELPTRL

[5] = target: Protein kinase C gamma type (Homo sapiens) (UniProt P05129); assay: Inhibition of recombinant human full length GST-tagged PRKCG expressed in insect cells at 2 uM using Ser/Thr 07 as substrate measured after 1 hr by Z'-LYTE assay relative to control; settings: Insect cell
MDA-MB-361 [6] = assay: Induction of apoptosis in human MDA-MB-361 cells assessed as change in AKT phosphorylation at T308 level at 0.05 to 5 micromol/L incubated for 48 hrs by Western blot analysis; format: functional, cell-based; settings: dose 0.05-5 µmol/L
[7] = target: Serine/threonine-protein kinase 25 (Homo sapiens) (UniProt O00506); assay: Inhibition of recombinant human full length GST-tagged STK25 expressed in insect cells at 2 uM using Ser/Thr 07 as substrate measured after 1 hr by Z'-LYTE assay relative to control; settings: Insect cell
[8] = system: Epidermal growth factor receptor (Homo sapiens), P00533 [T790M]; assay: Inhibition of recombinant human GST-tagged EGFR T790M mutant (668-1210 residues) expressed in insect cells at 2 uM using Tyr 04 as substrate measured after 1 hr by Z'-LYTE assay relative to control; settings: Insect cell
MDA-MB-361 [9] = assay: Antitumor activity against human MDA-MB-361 cells xenografted in female nude mouse model assessed as suppression in P-S6K at T389 level at 50 mg/kg, iv administered once a week and measured at least 8 hrs by immunoblot analysis; format: functional, organism-based
[10] = target: Homeodomain-interacting protein kinase 4 (Homo sapiens) (UniProt Q8NE63); assay: Inhibition of recombinant human full-length GST-tagged HIPK4 expressed in insect cells at 2 uM using Ser/Thr 18 as substrate measured after 1 hr by Z'-LYTE assay relative to control; settings: Insect cell
[11] = target: BDNF/NT-3 growth factors receptor (Homo sapiens) (UniProt Q16620); assay: Inhibition of recombinant human His-tagged NTRK2 (526-838 residues) expressed in insect cells at 2 uM using Tyr 01 as substrate measured after 1 hr by Z'-LYTE assay relative to control; settings: Insect cell
Chain of BDNF/NT-3 growth factors receptor (Homo sapiens) (Q16620 32-822 limits assumed): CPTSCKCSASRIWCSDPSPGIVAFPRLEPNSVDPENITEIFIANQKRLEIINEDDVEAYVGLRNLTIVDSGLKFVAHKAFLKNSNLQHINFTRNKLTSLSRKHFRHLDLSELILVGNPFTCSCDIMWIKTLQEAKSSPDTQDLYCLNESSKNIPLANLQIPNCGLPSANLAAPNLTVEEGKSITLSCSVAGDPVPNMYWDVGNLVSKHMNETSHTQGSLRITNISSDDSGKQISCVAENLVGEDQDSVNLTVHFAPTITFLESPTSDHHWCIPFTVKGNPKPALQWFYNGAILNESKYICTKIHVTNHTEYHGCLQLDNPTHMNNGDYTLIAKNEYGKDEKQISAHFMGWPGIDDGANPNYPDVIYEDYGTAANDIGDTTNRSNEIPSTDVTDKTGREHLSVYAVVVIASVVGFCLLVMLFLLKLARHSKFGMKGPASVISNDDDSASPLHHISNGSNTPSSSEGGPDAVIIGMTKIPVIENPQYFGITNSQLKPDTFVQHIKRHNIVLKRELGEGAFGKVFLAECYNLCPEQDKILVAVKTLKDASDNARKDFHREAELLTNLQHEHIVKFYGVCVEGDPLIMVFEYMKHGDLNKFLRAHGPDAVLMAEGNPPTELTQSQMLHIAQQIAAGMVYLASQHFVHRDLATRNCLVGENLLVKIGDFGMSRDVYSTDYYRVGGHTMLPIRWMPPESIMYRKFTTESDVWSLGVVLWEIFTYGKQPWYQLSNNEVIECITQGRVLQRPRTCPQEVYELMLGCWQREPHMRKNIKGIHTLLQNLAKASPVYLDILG

BT-549 = assay: Antiproliferative activity against human BT-549 cells assessed as cell growth inhibition incubated for 24 hrs by MTS assay; format: functional, cell-based; settings: BT-549, 24 h
[12] = system: Tyrosine-protein kinase ABL1 (Homo sapiens), P00519 [Y253F]; assay: Inhibition of recombinant human full-length His-tagged ABL1 Y253F mutant expressed in insect cells at 2 uM using Tyr 02 as substrate measured after 1 hr by Z'-LYTE assay relative to control; settings: Insect cell
[13] = target: NT-3 growth factor receptor (Homo sapiens) (UniProt Q16288); assay: Inhibition of recombinant human His-tagged NTRK3 (510-825 residues) expressed in baculovirus expression system at 2 uM using Tyr 01 as substrate measured after 1 hr by Z'-LYTE assay relative to control
Chain of NT-3 growth factor receptor (Homo sapiens) (Q16288 32-839 limits assumed): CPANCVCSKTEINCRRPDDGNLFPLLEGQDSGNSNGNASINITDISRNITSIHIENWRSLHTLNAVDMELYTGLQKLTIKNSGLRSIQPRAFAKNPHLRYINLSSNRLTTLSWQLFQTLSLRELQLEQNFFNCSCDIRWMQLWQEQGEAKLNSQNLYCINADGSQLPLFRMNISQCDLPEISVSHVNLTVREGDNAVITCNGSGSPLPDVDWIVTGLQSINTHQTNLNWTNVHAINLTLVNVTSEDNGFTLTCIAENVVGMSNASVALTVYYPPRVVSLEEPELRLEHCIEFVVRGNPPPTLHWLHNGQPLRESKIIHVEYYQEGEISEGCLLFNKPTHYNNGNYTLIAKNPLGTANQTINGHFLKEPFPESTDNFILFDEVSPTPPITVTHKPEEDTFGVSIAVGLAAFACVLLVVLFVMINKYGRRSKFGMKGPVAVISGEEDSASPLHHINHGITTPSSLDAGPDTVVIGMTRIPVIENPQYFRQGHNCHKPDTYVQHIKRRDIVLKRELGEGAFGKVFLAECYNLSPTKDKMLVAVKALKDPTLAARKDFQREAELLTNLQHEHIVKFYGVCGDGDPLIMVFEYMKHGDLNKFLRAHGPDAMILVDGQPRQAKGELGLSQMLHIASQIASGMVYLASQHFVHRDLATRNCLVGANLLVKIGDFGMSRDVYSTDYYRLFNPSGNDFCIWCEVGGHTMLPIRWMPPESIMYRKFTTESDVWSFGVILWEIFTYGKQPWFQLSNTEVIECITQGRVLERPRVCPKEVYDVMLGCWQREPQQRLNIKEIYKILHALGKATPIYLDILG

[14] = target: Fibroblast growth factor receptor 1 (Homo sapiens) (UniProt P11362); assay: Inhibition of recombinant human His-tagged FGFR1 (308-731 residues) expressed in baculovirus expression system at 2 uM using Tyr 04 as substrate measured after 1 hr by Z'-LYTE assay relative to control
[15] = target: High affinity nerve growth factor receptor (Homo sapiens) (UniProt P04629); assay: Inhibition of recombinant human His-tagged NTRK1 (441-796 residues) expressed in insect cells at 2 uM using Tyr 01 as substrate measured after 1 hr by Z'-LYTE assay relative to control; settings: Insect cell
[16] = target: Serine/threonine-protein kinase Chk1 (Homo sapiens) (UniProt O14757); assay: Inhibition of recombinant human full-length His-tagged CHEK1 expressed in baculovirus expression system at 2 uM using Ser/Thr 19 as substrate measured after 1 hr by Z'-LYTE assay relative to control
[17] = target: Serine/threonine-protein kinase PAK 3 (Homo sapiens) (UniProt O75914); assay: Inhibition of recombinant human full length His-tagged PAK3 expressed in insect cells at 2 uM using Ser/Thr 20 as substrate measured after 1 hr by Z'-LYTE assay relative to control; settings: Insect cell
Chain of Serine/threonine-protein kinase PAK 3 (Homo sapiens) (O75914 whole entry, looked up, the tested form may be a part): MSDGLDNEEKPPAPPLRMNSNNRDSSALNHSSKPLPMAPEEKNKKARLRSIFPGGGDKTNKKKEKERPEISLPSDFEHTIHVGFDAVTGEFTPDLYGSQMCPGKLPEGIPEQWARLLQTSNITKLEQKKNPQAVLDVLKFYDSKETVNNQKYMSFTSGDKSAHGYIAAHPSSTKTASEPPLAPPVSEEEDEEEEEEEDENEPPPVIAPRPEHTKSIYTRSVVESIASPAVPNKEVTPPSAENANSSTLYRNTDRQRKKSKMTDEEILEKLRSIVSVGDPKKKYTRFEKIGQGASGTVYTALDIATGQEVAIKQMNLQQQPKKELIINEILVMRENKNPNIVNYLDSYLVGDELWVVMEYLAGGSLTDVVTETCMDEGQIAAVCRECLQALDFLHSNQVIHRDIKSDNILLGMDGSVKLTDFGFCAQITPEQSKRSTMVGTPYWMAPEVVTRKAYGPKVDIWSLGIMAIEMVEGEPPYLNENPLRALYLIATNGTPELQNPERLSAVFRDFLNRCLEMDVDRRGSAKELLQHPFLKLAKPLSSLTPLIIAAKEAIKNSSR

[18] = target: Serine/threonine-protein kinase Nek9 (Homo sapiens) (UniProt Q8TD19); assay: Inhibition of recombinant human GST-tagged NEK9 (347-732 residues) expressed in insect cells at 2 uM using Ser/Thr 07 as substrate measured after 1 hr by Z'-LYTE assay relative to control; settings: Insect cell
Chain of Serine/threonine-protein kinase Nek9 (Homo sapiens) (Q8TD19 whole entry, the tested form may be a part): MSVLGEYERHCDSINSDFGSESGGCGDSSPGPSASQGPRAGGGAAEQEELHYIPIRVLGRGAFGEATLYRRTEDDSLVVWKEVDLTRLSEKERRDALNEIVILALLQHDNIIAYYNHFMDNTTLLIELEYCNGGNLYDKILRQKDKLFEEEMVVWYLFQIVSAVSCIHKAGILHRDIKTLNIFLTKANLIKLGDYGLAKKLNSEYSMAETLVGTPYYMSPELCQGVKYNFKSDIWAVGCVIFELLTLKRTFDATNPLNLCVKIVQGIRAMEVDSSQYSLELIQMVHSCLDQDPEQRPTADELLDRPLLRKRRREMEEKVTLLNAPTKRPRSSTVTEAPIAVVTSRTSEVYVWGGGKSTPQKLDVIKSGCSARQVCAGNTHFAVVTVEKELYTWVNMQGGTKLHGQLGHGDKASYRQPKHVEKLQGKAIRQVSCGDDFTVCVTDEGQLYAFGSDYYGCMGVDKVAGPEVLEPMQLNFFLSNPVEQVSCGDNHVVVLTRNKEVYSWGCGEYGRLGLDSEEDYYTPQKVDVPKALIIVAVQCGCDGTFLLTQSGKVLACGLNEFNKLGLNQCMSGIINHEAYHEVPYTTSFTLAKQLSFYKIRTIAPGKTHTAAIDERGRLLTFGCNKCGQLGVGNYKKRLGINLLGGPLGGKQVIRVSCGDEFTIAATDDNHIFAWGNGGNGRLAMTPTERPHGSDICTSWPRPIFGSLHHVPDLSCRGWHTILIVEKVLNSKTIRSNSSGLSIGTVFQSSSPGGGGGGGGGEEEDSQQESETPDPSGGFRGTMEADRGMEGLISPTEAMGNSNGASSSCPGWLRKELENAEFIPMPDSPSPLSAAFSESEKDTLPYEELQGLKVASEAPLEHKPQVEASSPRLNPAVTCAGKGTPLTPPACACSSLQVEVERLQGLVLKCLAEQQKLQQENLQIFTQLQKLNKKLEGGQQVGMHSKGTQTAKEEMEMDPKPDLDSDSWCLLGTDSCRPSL

[19] = target: Mitogen-activated protein kinase kinase kinase 8 (Homo sapiens) (UniProt P41279); assay: Inhibition of recombinant human GST-tagged MAP3K8 (30-397 residues) expressed in insect cells at 2 uM using Ser/Thr 03 as substrate measured after 1 hr by Z'-LYTE assay relative to control; settings: Insect cell
Chain of Mitogen-activated protein kinase kinase kinase 8 (Homo sapiens) (P41279 whole entry, the tested form may be a part): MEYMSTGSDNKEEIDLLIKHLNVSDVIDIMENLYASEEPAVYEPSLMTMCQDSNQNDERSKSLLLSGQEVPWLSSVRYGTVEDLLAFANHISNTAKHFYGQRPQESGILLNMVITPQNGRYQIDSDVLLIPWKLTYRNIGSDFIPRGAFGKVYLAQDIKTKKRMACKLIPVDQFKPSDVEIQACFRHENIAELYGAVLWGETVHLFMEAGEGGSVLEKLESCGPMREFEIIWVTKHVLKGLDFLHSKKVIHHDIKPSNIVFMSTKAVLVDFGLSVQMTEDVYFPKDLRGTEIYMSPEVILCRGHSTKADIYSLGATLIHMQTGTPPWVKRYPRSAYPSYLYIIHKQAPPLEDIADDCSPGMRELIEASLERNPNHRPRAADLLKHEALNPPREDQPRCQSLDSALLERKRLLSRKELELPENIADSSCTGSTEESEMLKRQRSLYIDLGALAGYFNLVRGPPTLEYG

[20] = target: SRSF protein kinase 1 (Homo sapiens) (UniProt Q96SB4); assay: Inhibition of recombinant human full length His-tagged SRPK1 expressed in insect cells at 2 uM using Ser/Thr 18 as substrate measured after 1 hr by Z'-LYTE assay relative to control; settings: Insect cell
Chain of SRSF protein kinase 1 (Homo sapiens) (Q96SB4 whole entry): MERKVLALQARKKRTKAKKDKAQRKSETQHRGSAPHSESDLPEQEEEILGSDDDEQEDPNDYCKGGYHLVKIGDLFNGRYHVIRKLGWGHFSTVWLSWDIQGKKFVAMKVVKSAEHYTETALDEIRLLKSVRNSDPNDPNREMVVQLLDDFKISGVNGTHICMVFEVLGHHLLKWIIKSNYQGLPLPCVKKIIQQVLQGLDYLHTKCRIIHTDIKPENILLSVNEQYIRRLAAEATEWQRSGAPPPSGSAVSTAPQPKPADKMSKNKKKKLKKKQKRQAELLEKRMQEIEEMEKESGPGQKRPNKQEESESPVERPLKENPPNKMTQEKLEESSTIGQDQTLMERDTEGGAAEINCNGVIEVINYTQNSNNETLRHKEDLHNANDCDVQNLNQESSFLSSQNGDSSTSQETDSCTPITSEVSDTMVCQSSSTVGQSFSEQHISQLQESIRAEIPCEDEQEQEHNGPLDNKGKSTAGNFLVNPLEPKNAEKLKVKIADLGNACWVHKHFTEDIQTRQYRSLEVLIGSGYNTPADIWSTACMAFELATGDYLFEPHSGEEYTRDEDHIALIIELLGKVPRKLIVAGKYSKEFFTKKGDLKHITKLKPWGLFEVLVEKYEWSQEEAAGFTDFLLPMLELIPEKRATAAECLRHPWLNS

U-87 MG = assay: Antitumor activity against PTEN-null human U-87MG cells xenografted in female nude mouse model assessed as tumor growth delay at 25 to 50 mg/kg, po qd administered as 5 days on/2 days off regimen for 4 cycles; format: functional, organism-based; settings: U-87MG ATCC, dose 25-50 mg/kg, time 28.0 day

With `CNC(=O)Nc1ccc(-c2nc(N3CC4CCC(C3)O4)c3cnn(C4CCC5(CC4)OCCO5)c3n2)cc1` the inhibition [1] was 14%, the inhibition [2] was 15% and the inhibition [3] was -3%. The inhibition (mTORC1 (Homo sapiens)) was “Active”, the Activity (PC3MM2) was “Active” and the IC50 (MG-63) was 0.025 µM. For the same compound, the inhibition [4] was -1%, the inhibition [5] was 11% and the Activity (MDA-MB-361 [6]) was “inactive”. For the same compound, the inhibition [7] was 2%, the inhibition [8] was 2% and the Activity (MDA-MB-361 [9]) was “Active”. The inhibition [10] was 7%, the inhibition [11] was 1% and the IC50 (BT-549) was 0.037 µM. It also gave an inhibition [12] of 0%, an inhibition [13] of 5% and an inhibition [14] of 4%. It also gave an inhibition [15] of 7%, an inhibition [16] of 9% and an inhibition [17] of 1%. For the same compound, the inhibition [18] was -2%, the inhibition [19] was 1% and the inhibition [20] was 2%. For the same compound, the Activity (U-87 MG) was “Active”.

Reference: ChEMBL document CHEMBL5696439 (Cancer Res, 2010)
